Experimental data published in patent US10799522B2, “Compositions and methods relating to galectin detection” (Wayne State University, priority 2015, dated 2020).

Test system: orthotopic human breast carcinoma xenograft (MCF10DCIS)
Assay: dynamic PET/CT imaging, pharmacokinetics and biodistribution in tumor-bearing mice
Format: in vivo, immunedeficient nu/nu mice
Details: 10 mg/kg i.v. 15 min prior to [^18F]FPDTG; at 60 min post injection
Protocol: A single (unilateral) orthotopic breast carcinoma xenograft was established in immunedeficient nu/nu mice by injection of human breast ductal carcinoma in situ cells (MCF10DCIS) in Matrigel into one of the upper mammary fat pad.
Tumor-bearing mice (˜20-25 g) were anesthetized using inhalation of 2% isoflurane in oxygen, and their body temperature maintained at 38° C. by a heating pad with a feedback temperature control. […] Dynamic PET images were acquired in list-mode and reconstructed using OSEM algorithm at multiple time frames post radiotracer administration (0-2, 2-4, 4-6, 6-8, 8-10, 10-20, 20-30, 30-40, 40-50, 50-60 min). Thereafter, while still fixed to the positioning bed, the mice were moved with the bed into the gantry of INVEON SPECT/CT (Siemens), and CT images were acquired over the whole body area for attenuation correction of PET images and for production of PET/CT images. PET/CT fusion images were generated and analyzed in a similar manner as when studying rats.

## OC[C@H]1O[C@@H](S[C@@H]2O[C@H](CO)[C@H](O)[C@H](n3cc(-c4cccc(F)c4)nn3)[C@H]2O)[C@H](O)[C@@H](n2cc(-c3cccc(F)c3)nn2)[C@H]1O [FPTDG, bis-{3-deoxy-3-[4-(3-fluorophenyl)-1H-1,2,3-triazol-1-yl]-β-D-galactopyranosyl)sulfane, reference compound]
  blockade of the radiotracer uptake and retention in DCIS lesion: > 90%
